Test results taken from US8697692B2, “Pyrrolo [3,2-c] pyridine-4-one 2-indolinone protein kinase inhibitors” (Shanghai Hengrui Pharmaceutical Co., Ltd., priority 2006, dated 2014).
Read-outs that look alike come from different tables or passages of the source.

Test system: A431 cell
Experiment: Cell Proliferation Inhibition EGFR Assay (SRB method)
Format: cell-based, homo sapient
Details: Homo sapiens, read-out: IC50 (A431)
Text: The following in vitro assay may be used to determine the level of activity and effect of different compounds of the present invention on the proliferation inhibition (cell toxic) of […] growth factor receptor (EGFR) high expressing homo […] cancer cell-A431 cell. The cellular assay described here measure the compounds of their anti-angiogenesis and proliferation inhibition activity and effect through EGFR on the cancer cells in vitro. The effect and activity is represented by the IC50 value that kills the cancer cell. […] The homo […] highly express EGFR are chosen and seeded to 96-well cell culture plate at a suitable concentration (exp 5000 cells/ml medium). The cells then are cultured in carbon dioxide (CO2) incubator till when they confluence to about 85%. Then, the cell culture medium is replaced by fresh one with tested compounds added in it at serial concentrations (general 6 to 7 concentrations). Then the cells are put back to the culture and cultured for continuous 72 hours. 72 hours later, the cell exposed to compounds and control cell are assayed for their proliferation using Sulforhodamine B (SRB) method. Compounds IC50 on tested cells are calculated by the data of inhibition rates of serial concentrations of the tested compounds. • a. Dimethyl sulfoxide (Sinophma chemical reagent company, catalog No. T20050806) • b. A431 cells (Purchased from Institute of biochemistry and cell biology) • c. Falcon 100 mm cell culture plates (Baton Dickison Labware, Baton Dickison and company, • Catalog No. 18677) • d. coming 96-well culture cluster (Corning Incorporated, Catalog No. 3599) • e. Fisher Pipette (Fisher scientific, Catalog No. 03-692-164) • f. DMEM/F12 cell medium (Gibco, Catalog No. 12400-024) • g. Fetal bovine serum, origin from Australia (Gibco, Catalog No. 10099-141) • h. […] Sulforhodamine B (Sigma, Catalog No. 3520-42-1) • k. Acetic Acid (Sinophma chemical reagent company, Catalog No. T20060508) • l. Trichloroacetic Acid (Sinophma chemical reagent company, Catalog No. T20060305) • m. Tris base (Amresco, Catalog No. 0826) • n. Class II A/B3 Biological safety cabinet (ThermoForma Catalog No. HB0053 03) • o. Series II water jacketed CO2 incubator (ThermoForma Model: 3111) • p. Centrifuge (Fisher Scientific Marathon 8 k, Catalog No. 0027-02) • q. Novastar Plate reader (BMG Labtech, Catalog No. 700 0081) • r. Orbital Shaker (Qilinbeier, Catalog No. TS-1) Protocol: […] Growing seeded 96-well plates at 37° C., 5% CO2, till 85% confluence. • 4. Prepare compounds stock solution, using DMSO solve candidate compounds to a concentration of 20 mM. […] Use cell culture medium (in this case, DMEM/F12+10% FBS) to dilute the compounds solution prepared above. Each DMSO serial concentration compound solution is diluted by 20 times with culture medium by adding 5 μl DMSO compound solution to 95 μl culture medium, then mix well by vortex. This promise that the DMSO concentration at that the A431 cell will exposed to will not surpass 0.5%. • 6. […] Each well added 180 μl medium, then add 20 μl medium solution of tested compounds prepared at step 5 to each well. For control group cell, add 20 μl culture medium containing 0.5% pure DMSO. […] Each 96-well plate, we can test 3 compounds with a control cell group. • 7. Put the culture plates back to incubator, culture for 72 hours at 37° C., 5% CO2. • 8. 72 hours later, remove cultures from incubator into sterile work area. • 9. Prepare fixative (50% Trichloroacetic Acid-TCA) by adding reagent grade water to the TCA, fix the cells by gently layering […] of cold TCA solution on top of the growth medium. • 10. Incubate plates for 1 hour at 4° C. and then rinse with water several times to remove TCA, serum proteins, etc. Plates are air dried and stored until use. Bland background optical density is measured in wells incubated with growth medium without cells. • 11. Use 10% acetic acid solution to prepare 0.4% Sulforhodamine B solution. Add 50 μl sulforhodamine B solution to each well of 96-well plates. • 12. […]

[1] = A-431, A431 cells, 72 hours exposure, Sulforhodamine B

Row | SMILES | IC50 [1] [µM] | IC50 (A-431, 72 h) [µM]
1 | Cc1c(/C=C2\C(=O)Nc3c(Br)cc(F)cc32)[nH]c2c1C(=O)N(CCN1CCCCC1)CC2 [Example 90, 2-(7-Bromo-5-fluoro-2-oxo-1,2-dihydro-indol-3-ylidenemethyl)-3-methyl-5-(2-piperidin-1-yl-ethyl)-1,5,6,7-tetrahydro-pyrrolo[3,2-c]pyridin-4-one] | 0.27 | 
2 | Cc1c(/C=C2\C(=O)Nc3cccc(CCO)c32)[nH]c2c1C(=O)N(CCN1CCCC1)CC2 [Example 75, 2-[4-(2-Hydroxy-ethyl)-2-oxo-1,2-dihydro-indol-3-ylidenemethyl]-3-methyl-5-(2-pyrrolidin-1-yl-ethyl)-1,5,6,7-tetrahydro-pyrrolo[3,2-c]pyridin-4-one] | 1.68 | 
3 | Cc1c(/C=C2\C(=O)Nc3ncc(Br)cc32)[nH]c2c1C(=O)N(CCN1CCCCC1)CC2 [Example 93, 2-(5-Bromo-2-oxo-1,2-dihydro-pyrrolo[2,3-b]pyridin-3-ylidenemethyl)-3-methyl-5-(2-piperidin-1-yl-ethyl)-1,5,6,7-tetrahydro-pyrrolo[3,2-c]pyridin-4-one] | 1.66 | 
4 | COCC(=O)Nc1cc2c(cc1F)/C(=C/c1[nH]c3c(c1-c1ccc(F)cc1)C(=O)NCC3)C(=O)N2 [Example 67, N-{5-Fluoro-3-[3-(4-fluoro-phenyl)-4-oxo-4,5,6,7-tetrahydro-1H-pyrrolo[3,2-c]pyridin-2-ylmethylene]-2-oxo-2,3-dihydro-1H-indol-6-yl}-2-methoxy-acetamide] | 2.03 | 
5 | Cc1c(/C=C2\C(=O)Nc3cccc(-c4cccc(Cl)c4F)c32)[nH]c2c1C(=O)N(CCN1CCOCC1)CC2 [Example 48, 2-[4-(3-Chloro-2-fluoro-phenyl)-2-oxo-1,2-dihydro-indol-3-ylidenemethyl]-3-methyl-5-(2-morpholin-4-yl-ethyl)-1,5,6,7-tetrahydro-pyrrolo[3,2-c]pyridin-4-one] | 6.11 | 
6 | Cc1c(/C=C2\C(=O)Nc3ccc(F)cc32)[nH]c2c1C(=O)N(CCN1CCOCC1)CC2 [Example 15, 2-(5-Fluoro-2-oxo-1,2-dihydro-indol-3-ylidenemethyl)-3-methyl-5-(2-morpholin-4-yl-ethyl)-1,5,6,7-tetrahydro-pyrrolo[3,2-c]pyridin-4-one] |  | 1.35
7 | Cc1c(/C=C2\C(=O)Nc3ccc(NS(C)(=O)=O)cc32)[nH]c2c1C(=O)N(CCN1CCOCC1)CC2 [Example 22, N-{3-[3-Methyl-5-(2-mopholin-4-yl-ethyl)-4-oxo-4,5,6,7-tetrahydro-1H-pyrrolo[3,2-c]pyridine-2-ylmethylene]-2-oxo-2,3-dihydro-1H-indol-5-yl}-methanesulfonamide] | 2.85 | 
8 | CCN(CC)CCN1CCc2[nH]c(/C=C3\C(=O)Nc4c(NC(C)=O)cc(F)cc43)c(C)c2C1=O [Example 6, N-{3-[5-(2-Diethylamino-ethyl)-3-methyl-4-oxo-4,5,6,7-tetrahydro-1H-pyrrolo[3,2-c]pyridine-2-ylmethylene]-5-fluoro-2-oxo-2,3-dihydro-1H-indol-7-yl}-acetamide] | 1.38 | 
9 | Cc1c(/C=C2\C(=O)Nc3cc(NCc4ccc(F)cc4)c(F)cc32)[nH]c2c1C(=O)N(CCN1CCCCC1)CC2 [Example 94, 2-[5-Fluoro-6-(4-fluoro-benzylamino)-2-oxo-1,2-dihydro-indol-3-ylidenemethyl]-3-methyl-5-(2-piperidin-1-yl-ethyl)-1,5,6,7-tetrahydro-pyrrolo[3,2-c]pyridin-4-one] | 0.34 | 

Continued by falling IC50 [1], values first:

Row | IC50 [1] [µM] | SMILES | IC50 (A-431, 72 h) [µM]
10 | 3.06 | O=C(CO)Nc1cc2c(cc1F)/C(=C/c1[nH]c3c(c1-c1ccc(F)cc1)C(=O)NCC3)C(=O)N2 [Example 65, N-{5-Fluoro-3-[3-(4-fluoro-phenyl)-4-oxo-4,5,6,7-tetrahydro-1H-pyrrolo[3,2-c]pyridin-2-ylmethylene]-2-oxo-2,3-dihydro-1H-indol-6-yl}-2-hydroxy-acetamide] | 
11 | 1.25 | Cc1c(/C=C2\C(=O)Nc3cc(NC(=O)CO)c(F)cc32)[nH]c2c1C(=O)N(CCN1CCCCC1)CC2 [Example 61, N-{5-Fluoro-3-[3-methyl-4-oxo-5-(2-piperidin-1-yl-ethyl)-4,5,6,7-tetrahydro-1H-pyrrolo[3,2-c]pyridin-2-ylmethylene]-2-oxo-2,3-dihydro-1H-indol-6-yl}-2-hydroxy-acetamide] | 
12 | 0.53 | Cc1c(/C=C2\C(=O)Nc3cccc(-c4c(F)cccc4F)c32)[nH]c2c1C(=O)N(CCN1CCCCC1)CC2 [Example 63, 2-[4-(2,6-Difluoro-phenyl)-2-oxo-1,2-dihydro-indol-3-ylidenemethyl]-3-methyl-5-(2-piperidin-1-yl-ethyl)-1,5,6,7-tetrahydro-pyrrolo[3,2-c]pyridin-4-one] | 
13 | 0.12 | Cc1c(/C=C2\C(=O)Nc3ccc(NC=O)cc32)[nH]c2c1C(=O)N(CCN1CCCCC1)CC2 [Example 91, N-{3-[3-Methyl-4-oxo-5-(2-piperidin-1-yl-ethyl)-4,5,6,7-tetrahydro-1H-pyrrolo[3,2-c]pyridin-2-ylmethylene]-2-oxo-2,3-dihydro-1H-indol-5-yl}-formamide] | 
